# Literature values in US9603852B2, “Treatment of obesity and pulmonary arterial hypertension” (ALBERT EINSTEIN COLLEGE OF MEDICINE, INC., priority 2013, dated 2017).
# Read-outs that look alike come from different tables or passages of the source.
# Target: T1, rat PGT (Rattus norvegicus, UniProt Q00910)
# T1 construct: expressed in transfected cells
# Details: cited from earlier work; for Inh (% of Ctl) 0.01 μM: 0.01 μM compound; for Inh (% of Ctl) 0.01 μM / Inh (% of Ctl) 0.05 μM: second part of Table 1; for Inh (% of Ctl) 0.05 μM: 0.05 μM compound; for Inh (% of Ctl) 0.1 μM: 0.1 μM compound; for Inh (% of Ctl) 0.5 μM: 0.5 μM compound; for Inh (% of Ctl) 2.5 μM: 2.5 μM compound
# [1] = second part of Table 1 (Cpd 130-151)
smiles,measurement,setting,value
O=C(NCc1ccccc1)c1ccc(Nc2nc(NCCOCCNCc3ccccc3)nc(Nc3ccc(O)cc3)n2)cc1 [Compound 141],Inh (% of Ctl) 0.01 μM,,12.7 % of Ctl
same,Inh (% of Ctl) 0.05 μM,,22.0 % of Ctl
same,Inh (% of Ctl) 0.1 μM,[1],43.5 % of Ctl
O=C(NCCOCCOCCNc1nc(Nc2ccc(O)cc2)nc(Nc2ccc(C(=O)NCc3ccccc3)cc2)n1)c1ccccc1 [Compound 116],Inh (% of Ctl) 0.1 μM,first part of Table 1,36.4 % of Ctl
same,Inh (% of Ctl) 0.5 μM,0.5 µM,59.4 % of Ctl
O=C(NCCOCCOCCNc1nc(Nc2ccc(O)cc2)nc(Nc2ccc(C(=O)NCc3ccc(F)cc3F)cc2)n1)c1ccccc1 [Compound 131],Inh (% of Ctl) 0.01 μM,,22.3 % of Ctl
same,Inh (% of Ctl) 0.05 μM,,47.0 % of Ctl
same,Inh (% of Ctl) 0.1 μM,[1],74.3 % of Ctl
CC(=O)NCCOCCNc1nc(Nc2ccc(O)cc2)nc(Nc2ccc(C(=O)NCc3ccccc3)cc2)n1 [Compound 140],Inh (% of Ctl) 0.01 μM,,11.5 % of Ctl
same,Inh (% of Ctl) 0.05 μM,,4.5 % of Ctl
same,Inh (% of Ctl) 0.1 μM,[1],10.9 % of Ctl
N[C@@H](C(=O)NCCOCCNc1nc(Nc2ccc(O)cc2)nc(Nc2ccc(C(=O)NCc3ccccc3)cc2)n1)c1ccccc1 [Compound 132],Inh (% of Ctl) 0.01 μM,,15.0 % of Ctl
same,Inh (% of Ctl) 0.05 μM,,22.1 % of Ctl
same,Inh (% of Ctl) 0.1 μM,[1],32.4 % of Ctl
O=C(NCCOCCNc1nc(Nc2ccc(O)cc2)nc(Nc2ccc(C(=O)NCc3ccccc3)cc2)n1)Nc1ccccc1 [Compound 139],Inh (% of Ctl) 0.01 μM,,16.3 % of Ctl
same,Inh (% of Ctl) 0.05 μM,,30.7 % of Ctl
same,Inh (% of Ctl) 0.1 μM,[1],39.0 % of Ctl
O=C(NCCOCCOCCNc1nc(Nc2ccc(O)cc2)nc(Nc2ccc(C(=O)NCc3cc(F)cc(F)c3)cc2)n1)c1ccccc1 [Compound 130],Inh (% of Ctl) 0.01 μM,,41.6 % of Ctl
same,Inh (% of Ctl) 0.05 μM,,73.2 % of Ctl
same,Inh (% of Ctl) 0.1 μM,[1],81.7 % of Ctl
O=C(O)c1cccc(Nc2nc(NCCOCCOCCNC(=O)c3ccccc3)nc(Nc3ccc(C(=O)NCc4ccc(F)cc4)cc3)n2)c1 [Compound 150],Inh (% of Ctl) 0.01 μM,,4.2 % of Ctl
same,Inh (% of Ctl) 0.05 μM,,14.3 % of Ctl
same,Inh (% of Ctl) 0.1 μM,[1],23.9 % of Ctl
O=C(NCc1ccc(F)cc1)c1ccc(Nc2nc(Nc3ccc(O)cc3)nc(Nc3ccc(O)cc3)n2)cc1 [Compound 145],Inh (% of Ctl) 0.01 μM,,7.1 % of Ctl
same,Inh (% of Ctl) 0.05 μM,,3.1 % of Ctl
same,Inh (% of Ctl) 0.1 μM,[1],6.9 % of Ctl
O=C(NCCOCCOCCNc1nc(Nc2ccc(C(=O)NCc3ccc(F)cc3)cc2)nc(Nc2ccc(O)c(F)c2)n1)c1ccccc1 [Compound 143],Inh (% of Ctl) 0.01 μM,,33.7 % of Ctl
same,Inh (% of Ctl) 0.05 μM,,57.8 % of Ctl
same,Inh (% of Ctl) 0.1 μM,[1],69.5 % of Ctl
N[C@H](Cc1ccccc1)C(=O)NCCOCCNc1nc(Nc2ccc(O)cc2)nc(Nc2ccc(C(=O)NCc3ccccc3)cc2)n1 [Compound 133],Inh (% of Ctl) 0.01 μM,,4.3 % of Ctl
same,Inh (% of Ctl) 0.05 μM,,12.6 % of Ctl
same,Inh (% of Ctl) 0.1 μM,[1],19.4 % of Ctl
O=C(NCCOCCOCCNc1nc(NCCOCCOCCNC(=O)c2ccccc2)nc(Nc2ccc(O)cc2)n1)c1ccccc1 [Compound 151],Inh (% of Ctl) 0.05 μM,,0.7 % of Ctl
same,Inh (% of Ctl) 0.1 μM,[1],8.4 % of Ctl
O=C(NCc1ccccc1)c1ccc(Nc2nc(NCCOCCNC(=O)c3ccccc3C(F)(F)F)nc(Nc3ccc(O)cc3)n2)cc1 [Compound 134],Inh (% of Ctl) 0.01 μM,,14.0 % of Ctl
same,Inh (% of Ctl) 0.05 μM,,27.7 % of Ctl
same,Inh (% of Ctl) 0.1 μM,[1],46.7 % of Ctl
COc1ccc(C(=O)NCCOCCNc2nc(Nc3ccc(O)cc3)nc(Nc3ccc(C(=O)NCc4ccccc4)cc3)n2)cc1 [Compound 137],Inh (% of Ctl) 0.01 μM,,42.0 % of Ctl
same,Inh (% of Ctl) 0.05 μM,,64.9 % of Ctl
same,Inh (% of Ctl) 0.1 μM,[1],75.6 % of Ctl
O=C(NCCOCCNc1nc(Nc2ccc(O)cc2)nc(Nc2ccc(C(=O)NCc3ccc(F)cc3)cc2)n1)c1ccccc1 [Compound 147],Inh (% of Ctl) 0.01 μM,,44.5 % of Ctl
same,Inh (% of Ctl) 0.05 μM,,70.2 % of Ctl
same,Inh (% of Ctl) 0.1 μM,[1],79.5 % of Ctl
O=C(NCCOCCOCCNc1nc(Nc2ccc(O)cc2)nc(Oc2ccc(C(=O)NCc3ccccc3)cc2)n1)c1ccccc1 [Compound 83],Inh (% of Ctl) 0.5 μM,,4.1 % of Ctl
same,Inh (% of Ctl) 2.5 μM,,10.4 % of Ctl
same,Inh (% of Ctl) 5 μM,5 μM compound,42.0 % of Ctl
same,IC50,"[3H]PGE2 uptake, MDCK cells with rat PGT",0.609 µM
O=C(NCc1ccc(F)cc1)c1ccc(Nc2nc(Nc3ccc(O)cc3)nc(Nc3ccc(CNCc4ccccc4)cc3)n2)cc1 [Compound 149],Inh (% of Ctl) 0.01 μM,,3.8 % of Ctl
same,Inh (% of Ctl) 0.05 μM,,9.1 % of Ctl
same,Inh (% of Ctl) 0.1 μM,[1],17.6 % of Ctl
O=C(NCc1ccc(F)cc1)c1ccc(Nc2nc(Nc3ccc(O)cc3)nc(Nc3ccc(C(=O)NCc4ccc(F)cc4)cc3)n2)cc1 [Compound 148],Inh (% of Ctl) 0.01 μM,,8.4 % of Ctl
same,Inh (% of Ctl) 0.05 μM,,12.9 % of Ctl
same,Inh (% of Ctl) 0.1 μM,[1],20.7 % of Ctl
O=C(NCCOCCNc1nc(Nc2ccc(O)cc2)nc(Nc2ccc(C(=O)NCc3ccccc3)cc2)n1)c1ccc(F)cc1 [Compound 136],Inh (% of Ctl) 0.01 μM,,33.3 % of Ctl
same,Inh (% of Ctl) 0.05 μM,,64.1 % of Ctl
same,Inh (% of Ctl) 0.1 μM,[1],77.9 % of Ctl
COC(=O)c1cc(Nc2nc(NCCOCCOCCNC(=O)c3ccccc3)nc(Nc3ccc(C(=O)NCc4ccc(F)cc4)cc3)n2)ccc1O [Compound 144],Inh (% of Ctl) 0.01 μM,,3.4 % of Ctl
same,Inh (% of Ctl) 0.05 μM,,5.8 % of Ctl
same,Inh (% of Ctl) 0.1 μM,[1],10.8 % of Ctl
O=C(NCCOCCNc1nc(Nc2ccc(O)cc2)nc(Nc2ccc(C(=O)NCc3ccccc3)cc2)n1)c1ccncc1 [Compound 135],Inh (% of Ctl) 0.01 μM,,13.2 % of Ctl
same,Inh (% of Ctl) 0.05 μM,,28.4 % of Ctl
CCCCCCCC(=O)c1ccc(Nc2nc(NCCOCCOCCNC(=O)c3ccccc3)nc(Nc3ccc(O)cc3)n2)cc1 [Compound 76],Inh (% of Ctl) 2.5 μM,,39.9 % of Ctl
O=C(NCCOCCOCCNc1nc(Nc2ccc(C(=O)NCc3ccc(F)cc3)cc2)nc(Nc2ccc3[nH]cnc3c2)n1)c1ccccc1 [Compound 142],Inh (% of Ctl) 0.01 μM,,8.4 % of Ctl
same,Inh (% of Ctl) 0.05 μM,,20.1 % of Ctl
same,Inh (% of Ctl) 0.1 μM,[1],39.2 % of Ctl
